Test results from paper PMC10179080, “In Vivo and In Vitro Characterization of Close Analogs of Compound KA-11, a New Antiseizure Drug Candidate” (International Journal of Molecular Sciences, 2023).

Columns and labels:
[1] = Metabolic stability in human liver microsomes; type: in vitro ADME; settings: pH 7.4, 120 min, TRIS buffer pH 7.4, 37 °C, read-out: Metabolic stability (% remaining after incubation with HLMs)
Method: (§1) The assays and protocols used for evaluating the KA-232 ADME-Tox parameters were similar to those described previously for compound KA-11 [6].
Figure S3 The MetaSite 6.0.1. software prediction of the most probably sites of KA-232
metabolism. The darker red color - the higher probability to be involved in the metabolism
pathway. The blue circle marked the site of compound with the highest probability of metabolic
Figure S4 UPLC spectra after 120 min incubation of compound KA-232 with human liver
microsomes in TRIS buffer pH=7.4 at 37 °C.
reaction mixture. Three metabolites M1, M2 and M3 were identified as well as the products
(m/z= 382.18, m/z=445.23) of compound degradation in physiological buffers (see also Figure […]

in vitro = settings: PAMPA
Method: Pre-coated PAMPA Plate System Gentest™ was purchased from Corning (Tewksbury, MA, USA). […] The luminescent signal and the absorbances were measured by using a microplate reader EnSpire PerkinElmer (Waltham, MA, USA). The LC/MS/MS analyses used in PAMPA and metabolic stability assays were obtained on Waters ACQUITY™ TQD system (Waters, Milford, CT, USA).

[2] = molecular target: T1, TRPV1 (VR1) (antagonist effect) (Homo sapiens, UniProt Q8NER1); experiment: TRPV1 antagonist functional assay (intracellular Ca2+, CHO cells); type: cell-based; settings: 10 µM
T1 construct: host or cells: CHO cells
Method: (§2) Binding studies were carried out commercially in Eurofins Laboratories (Poitiers, France or New Taipei City, Taiwan).

[3] = system: Calcium Cav1.2 channels (diltiazem site, antagonist radioligand); experiment: Radioligand binding, Cav1.2 diltiazem site; set-up: species or system rat
Method: (§3) Dysfunction of both sodium and calcium ion channels is known to be one of the crucial reasons behind the pathogenesis of seizures. Consequently, these ion channels are molecular targets for several clinically important ASDs such as lacosamide, lamotrigine, carbamazepine, oxcarbazepine and compounds currently under preclinical and clinical studies. Thus, for KA-228 and KA-232, we tested herein their binding profile toward the aforementioned ion channels at concentrations of 10 and 100 µM (Table 3). […] Apart from in vitro studies focused on explaining the mechanism of action, KA-232 was additionally tested for its interaction with the potassium channel (hERG) which is recognized as one of the most important ‘off-targets’ responsible for harmful arrhythmogenic activity. Thus, the interaction of potential drug candidates with hERG must be excluded at an early stage of development.
as §2

CYP3A4 = molecular target: T2, CYP3A4 (Homo sapiens, UniProt P08684); experiment: CYP3A4 P450-Glo assay; type: in vitro ADME; settings: 10 µM
T2 construct: purchased Promega, Madison, WI, USA
Text: as §1
Figure 9 The effect of KA-232 and the reference drug ketoconazole (KE) on CYP3A4 activity (A). The effect of KA-232 and the reference drug quinidine (QD) on CYP2D6 activity (B). The effect of KA-232 and the reference cytostatic drug doxorubicin (DX) on the HepG2 cell line (C) and the SH-SY5Y cell line (D) viability. Statistical significance (* p < 0.05, **** p < 0.0001) was analyzed by Graph Pad Prism 8 software using one-way ANOVA and Bonferroni’s Multiple Comparison Post Test.

[4] = system: neuromuscular strength in mice; experiment: Grip strength test; type: in vivo
Method: The experiments were conducted on adult male albino Swiss mice weighing 22–26 g. The animals were kept in colony cages under standardized laboratory conditions: natural light–dark cycle 12/12 h, temperature 20–24 °C, air humidity 45–65% and free access to tap water and food (chow pellets). After 7 days of adaptation to laboratory conditions, the animals were randomly assigned to experimental groups consisting of 8 mice. The experimental procedures described herein were approved by the Local Ethics Committee in Lublin, Poland (approval numbers: 71/2020 and 13/2021), and were conducted in accordance with EU Directive 2010/63/EU for animal experiments. All efforts were made to minimize animal suffering and to use only the number of animals necessary to produce reliable scientific data according to the 3Rs rule. The grip strength test was carried out according to the methodology described by Socała et al.. Neuromuscular strength was measured just before the ivPTZ seizure threshold test to limit the number of animals used. The ED50 or TD50 values for tested substances in the acute animal models of seizures were calculated using the computer log-probit analysis. Subsequently, the ED50 and TD50 values (±SEM) were statistically analyzed using one-way analysis of variance (ANOVA) followed by the post hoc Dunnett’s test for multiple comparisons. Differences among values were considered statistically significant if p < 0.05. GraphPad Prism version 8 for Windows (GraphPad Software, San Diego, CA, USA) was used as a statistical software program. The results obtained from the acute ivPTZ test and grip strength test were evaluated by a Student’s t test. Fisher’s exact probability test was used to analyze protection from tonic forelimb and hindlimb extension in the ivPTZ test. Figure 8 Effects of KA-228 and KA-232 on neuromuscular strength in mice. KA-228 and KA-232 were administered i.p., 30 min before the test. Control animals received vehicle. […] The statistical significance was evaluated using the Student’s t test: * p < 0.05 vs. the vehicle-treated group (GraphPad Prism 8).

Potassium channel (hERG) = molecular target: T3, Potassium channel (hERG) (Homo sapiens, UniProt Q12809); experiment: Radioligand binding, potassium channel (hERG); settings: 100 µM; KA-11 value not published before
T3 construct: host or cells: HEK-293 cells
Method: as §3, §2

hERG potassium channel = molecular target: T4, hERG potassium channel (Homo sapiens, UniProt Q12809); experiment: Radioligand binding, potassium channel (hERG); settings: human, human recombinant HEK-293 cells expressing hERG, KA-11 value not published before, read-out: % Inhibition of Control Specific Binding
T4 construct: host or cells: HEK-293 cells
Method: as §3, §2

T1 sequence (Q8NER1 whole entry): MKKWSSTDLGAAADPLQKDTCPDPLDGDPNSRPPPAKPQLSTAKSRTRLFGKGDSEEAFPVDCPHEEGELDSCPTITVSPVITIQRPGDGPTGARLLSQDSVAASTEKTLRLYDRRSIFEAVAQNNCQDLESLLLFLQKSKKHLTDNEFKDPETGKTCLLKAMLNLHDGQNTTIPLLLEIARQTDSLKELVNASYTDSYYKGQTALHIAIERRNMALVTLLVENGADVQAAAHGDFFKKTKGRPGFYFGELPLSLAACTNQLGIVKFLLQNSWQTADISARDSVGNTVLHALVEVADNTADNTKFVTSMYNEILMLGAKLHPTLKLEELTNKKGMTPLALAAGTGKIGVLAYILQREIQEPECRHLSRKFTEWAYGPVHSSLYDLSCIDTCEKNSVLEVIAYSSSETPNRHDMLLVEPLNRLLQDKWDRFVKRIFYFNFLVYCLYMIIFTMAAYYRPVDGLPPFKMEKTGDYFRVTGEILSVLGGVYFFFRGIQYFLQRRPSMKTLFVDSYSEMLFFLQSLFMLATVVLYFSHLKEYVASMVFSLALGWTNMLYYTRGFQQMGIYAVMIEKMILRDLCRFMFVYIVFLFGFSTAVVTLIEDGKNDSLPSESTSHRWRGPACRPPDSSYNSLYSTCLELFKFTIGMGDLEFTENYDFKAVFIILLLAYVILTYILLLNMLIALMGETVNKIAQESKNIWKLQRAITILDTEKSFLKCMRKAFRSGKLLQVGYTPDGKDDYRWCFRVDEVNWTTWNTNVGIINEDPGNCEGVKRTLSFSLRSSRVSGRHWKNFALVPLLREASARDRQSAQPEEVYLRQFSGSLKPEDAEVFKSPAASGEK
T3 sequence (Q12809 whole entry): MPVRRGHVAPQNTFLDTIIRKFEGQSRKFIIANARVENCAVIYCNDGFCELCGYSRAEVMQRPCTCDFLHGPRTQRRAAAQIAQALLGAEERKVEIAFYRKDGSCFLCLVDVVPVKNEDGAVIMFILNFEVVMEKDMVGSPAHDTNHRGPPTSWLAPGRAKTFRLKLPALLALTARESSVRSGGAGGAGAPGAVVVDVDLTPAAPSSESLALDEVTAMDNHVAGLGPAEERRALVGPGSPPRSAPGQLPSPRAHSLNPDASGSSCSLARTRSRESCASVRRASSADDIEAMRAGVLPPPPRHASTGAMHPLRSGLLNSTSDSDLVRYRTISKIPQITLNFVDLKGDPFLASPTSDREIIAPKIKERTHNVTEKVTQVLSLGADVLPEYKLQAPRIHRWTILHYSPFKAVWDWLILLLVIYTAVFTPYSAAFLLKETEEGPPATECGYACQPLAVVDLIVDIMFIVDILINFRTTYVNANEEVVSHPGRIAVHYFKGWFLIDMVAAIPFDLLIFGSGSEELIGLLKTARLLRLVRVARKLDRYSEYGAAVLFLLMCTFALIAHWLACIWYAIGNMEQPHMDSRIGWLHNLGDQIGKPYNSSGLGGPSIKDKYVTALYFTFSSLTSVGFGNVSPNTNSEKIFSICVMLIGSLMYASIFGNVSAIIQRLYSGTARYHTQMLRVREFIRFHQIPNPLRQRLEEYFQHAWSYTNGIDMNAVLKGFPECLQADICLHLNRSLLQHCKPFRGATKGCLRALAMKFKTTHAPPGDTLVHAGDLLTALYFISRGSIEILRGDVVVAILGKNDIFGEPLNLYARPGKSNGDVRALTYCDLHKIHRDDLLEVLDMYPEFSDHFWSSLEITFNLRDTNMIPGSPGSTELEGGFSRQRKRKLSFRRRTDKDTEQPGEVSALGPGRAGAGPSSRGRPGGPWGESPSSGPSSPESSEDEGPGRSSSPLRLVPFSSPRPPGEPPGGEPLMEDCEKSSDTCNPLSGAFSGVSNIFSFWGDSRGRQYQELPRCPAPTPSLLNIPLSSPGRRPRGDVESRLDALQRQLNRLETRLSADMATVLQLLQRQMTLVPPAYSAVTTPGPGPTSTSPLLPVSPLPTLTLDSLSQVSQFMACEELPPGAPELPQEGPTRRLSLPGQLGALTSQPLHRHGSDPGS
T4 sequence (Q12809 whole entry): as above
T2 sequence (P08684 whole entry): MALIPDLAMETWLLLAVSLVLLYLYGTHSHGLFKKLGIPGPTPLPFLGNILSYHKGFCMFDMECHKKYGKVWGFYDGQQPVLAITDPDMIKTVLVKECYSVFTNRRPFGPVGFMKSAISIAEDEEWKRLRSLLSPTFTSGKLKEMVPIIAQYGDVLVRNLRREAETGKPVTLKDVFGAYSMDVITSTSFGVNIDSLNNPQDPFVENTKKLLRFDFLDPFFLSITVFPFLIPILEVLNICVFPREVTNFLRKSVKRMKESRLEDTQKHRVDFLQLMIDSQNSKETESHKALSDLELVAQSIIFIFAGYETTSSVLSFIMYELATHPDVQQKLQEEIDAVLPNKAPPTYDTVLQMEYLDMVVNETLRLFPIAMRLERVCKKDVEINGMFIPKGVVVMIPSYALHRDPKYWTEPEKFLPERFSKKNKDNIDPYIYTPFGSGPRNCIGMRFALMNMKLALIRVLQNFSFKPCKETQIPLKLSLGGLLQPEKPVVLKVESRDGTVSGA

CC(C(=O)N1CCN(c2cccc(C(F)(F)F)c2)CC1)N1C(=O)CC(N(C)C)C1=O.Cl (centres unmarked) [KA-232, 3-(Dimethylamino)-1-(1-oxo-1-(4-(3-(trifluoromethyl)phenyl)piperazin-1-yl)propan-2-yl)pyrrolidine-2,5-dione hydrochloride]
remaining at 2 h [1]: ~73%
Papp at 5 h (in vitro): 10.2 ± 1.65 ×10⁻⁶ cm/s
% Inhibition of control specific binding (functional, antagonist effect) [2]: did not inhibit
inhibition at 10 µM ([2]; CHO, read-out: % Inhibition of control specific binding (functional, antagonist effect)): 10.5%
% Inhibition of Control Specific Binding ([3]; 10 µM): −1.8%
% Inhibition of Control Specific Binding ([3]; 100 µM): 17.5%
CYP3A4 activity (% of control ± SD) (CYP3A4): 86.77 ± 5.71 % of control
effect on neuromuscular strength (grip strength) ([4]; 50 mg/kg i.p., 30 min before test): did not produce any significant effects
effect on neuromuscular strength (grip strength) ([4]; 100 mg/kg i.p., p < 0.05): slightly decreased
% Inhibition of Control Specific Binding (Potassium channel (hERG)): did not interact
inhibition at 60 min, 100 µM (hERG potassium channel): 18.3%
